Tests used:
Format in all cases: cell-based, human
Interleukin (IL)-1 beta = test: Inhibition of secreted Interleukin-1 beta in LPS-stimulated PBMCs (cytometric bead array); settings: PBMCs stimulated with LPS, 24 hours
Method: (§1) The compounds of formulae (I), (IA) and (IB) may be investigated for inhibition of pro-inflammatory cytokines Interleukin (IL)-1p, 2, 4, 6, 8, 13 and 17A, in peripheral blood mononuclear cells (PBMCs) isolated from fresh human buffy coats by centrifugation on Lymphoprep™ (Stemcell Technologies). All human cells are grown in cell culture medium RPMI-1640 supplemented with 1% penicillin/streptomycin and 5% heat inactivated fetal bovine serum.
(§2) PBMCs stimulated with LPS (Salmonella enterica serotype typhimurium) are incubated for 24 hours containing the compounds under investigation, reconstituted in dimethyl sulfoxide (DMSO). The secreted levels of Interleukin-1(3 is measured in the cell culture supernatant using a cytometric bead array and the cell viability is quantified using Trypan blue.

interleukin (IL)-6 = test: Inhibition of Interleukin-6 in PBMCs
Method: as §1

interleukin (IL)-8 = test: Inhibition of Interleukin-8 in PBMCs
Method: as §1

interleukin (IL)-17A = test: Inhibition of secreted Interleukin-17A in PMA/ionomycin-stimulated PBMCs (cytometric bead array); settings: PBMCs stimulated with PMA/ionomycin, 24 hours
Method: as §1
as §2, with “PMA/ionomycin” for “LPS (Salmonella enterica serotype typhimurium)”, “DMSO.” for “dimethyl sulfoxide (DMSO).”, “Interleukin-17A are” for “Interleukin-1(3 is”

IL-2 = test: Inhibition of IL-2 release, stimulated CD4-positive T cells
Method: (§3) The compounds of formulae (I), (IA) and (IB) may be investigated for inhibition of pro-inflammatory cytokines Interleukin-2, 4 and 13 in human CD4-positive T cells isolated from fresh isolated PBMCS using a CD4-positive T cell isolation kit.
(§4) CD4-positive T cells stimulated with beads coated with antibodies against CD2, CD3 and CD28 are incubated for 48 hours containing the compounds under investigation, reconstituted in DMSO. The secreted levels of Interleukin-2, 4 and 13 are measured in the cell culture supernatant using a cytometric bead array and the cell viability is measured using an MTT (3-(4,5-dimethylthiazol-2-yl)-2,5-diphenyltetrazolium bromide) assay.
(§5) Secreted IL-4 levels may be measured using electrochemiluminescence (MSD kits, Meso Scale Discovery), while secreted IL-2 levels may be measured using proximity homogenous time-resolved fluorescence (HTRF) and the amount of living cells may be measured by addition of resazurin (PrestoBlue®).

IL-4 = test: Inhibition of IL-4 release, stimulated CD4-positive T cells
Method: as §3, §4, §5

[1] = Inhibition of cell viability in the IL-2/IL-4 release assays; settings: human; read-out: Max Effect, Inhibition of cell viability
Method: as §4, §5

CD4-positive T cells = test: as above
Method: as §4, §5

| SMILES | inhibition of Interleukin IL-1 beta (Interleukin (IL)-1 beta) | inhibition of Interleukin IL-6 (interleukin (IL)-6) | inhibition of Interleukin IL-8 (interleukin (IL)-8) | inhibition of Interleukin IL-17A (interleukin (IL)-17A) | level of inhibition of IL-2 (in words) (IL-2) | level of inhibition of IL-4 (in words) (IL-4) | cytotoxicity at 48 h [1] [%] | inhibition of cell viability (in words) (CD4-positive T cells) |
| --- | --- | --- | --- | --- | --- | --- | --- | --- |
| Nc1nnc(C(c2ccccc2)c2ccccc2)c(N)n1 [3,5-Diamino-6-(diphenylmethyl)-1,2,4-triazine] | moderate inhibition | moderate inhibition | high inhibition | high inhibition | good level of inhibition | good level of inhibition | 28 | without significant inhibition |
| Nc1nnc(-c2sc(Cl)c(Cl)c2Cl)c(N)n1 [3,5-diamino-6-[2-(3,4,5-trichlorothienyl)]-1,2,4-triazine] | inhibitory effect | inhibitory effect | inhibitory effect | inhibitory effect |  |  |  |  |

Source: US20230167075A1, “INTERLEUKIN INHIBITORS” (UNIVERSITY OF GREENWICH, priority 2020, published 2023)
